Measurements from patent publication US20250186364A1, “COMBINATION OF ANTISPASMODIC AND ANESTHETIC AGENTS FOR TOPICAL PRODUCTS AND THEIR METHOD OF USE” (priority 2023, published 2025).
Entries after “also recorded” stand apart in the source; their conditions may differ.

Tests used:
hairless mice = test: Rotarod performance study in hairless mice; format: in vivo; conditions: 5% w/w HD topical
Procedure: FIG. 7 is an illustration of a Rota Rod apparatus in the present disclosure. Once the mice were trained, the rod was rotated at a constant speed of 20 rpm. Then the mice were placed on the rotating rod and length of time they could stay on the rotating rod was measured in seconds.
The Rotarod study was to investigate the skeletal muscle relaxant effects of HD, specifically its impact on motor coordination and balance in hairless mice. The study was structured to assess both the kinetics of HD's effect over time and its efficacy in inducing muscle relaxation. Efficacy of HD was determined post-treatment at intervals of 15, 30, 60, 75, 90 minutes, and another to evaluate the efficacy, particularly noting the peak effect at 30 minutes post-application. Control and Treatment Groups: Each stage included a control group receiving vehicle (Aloe Vera Gel) and a test group treated with HD, 5% w/w HD (0.5 g) in the vehicle (9.5 g Aloe Vera Gel), prepared right before the study. The topical treatment was applied to the thighs of all four limbs for each mouse.

[1] = system: mouse extensor digitorum longus muscles; test: Isolated mouse muscle contraction study
Procedure: FIG. 4 is a schematic diagram of a validated isolated mouse muscle contraction study. Muscles were anchored at one end to the chamber floor and connected at the other end to a force transducer. After establishing a baseline response to the electrical field stimulation, HD was added to the buffer at concentrations ranging from 0.01% w/w to 1% w/w, and the impact on muscle contractile force was recorded over time at the frequency of 150 Hz. Additionally, muscles were subjected to varying frequencies of electrical stimulation to evaluate the frequency-dependent effects of HD.
This subsequent study was aimed to elucidate the specific effects of HD on isolated muscle tissue from mice, to quantify its potential use as a muscle relaxant. The study's design allowed for the controlled assessment of muscle contractility in a physiological buffer, minimizing external variables present in in vivo models. Muscle Isolation: The mouse extensor digitorum longus muscles were carefully dissected and mounted in a tissue bath super-fused with oxygenated physiological buffer, ensuring tissue viability throughout the experiment (FIG. 4). Baseline Measurement: Initial contractile responses were established via electrical stimulation at various frequencies, setting a comparative baseline for subsequent HD application effects. HD Application: Differing concentrations of HD (ranging from 0.01% to 1%) were introduced to the buffer. The muscle's contractile force (amplitude, which is the maximum contractile force) was determined to assess HD's concentration-dependent effects at a fixed frequency of 150 Hz (FIG. 6). Stimulation Frequency Adjustment: To explore the frequency-dependent nature of HD's action, muscles underwent varied frequencies of electrical stimulation at a fixed concentration of 0.5% of HD. This protocol aimed to simulate conditions of sporadic muscle spasms.

hind limb muscle = test: Rat hind limb muscle twitch study; format: in vivo, Sprague-Dawley rats
Procedure: FIG. 1 is a schematic diagram of a validated muscle twitch experimental set-up in the present disclosure. Here anesthetized Sprague-Dawley rats were prepared for muscle contraction assessment of their hindlimbs. The hind limbs were shaved and secured at the knee and ankle joints to prevent movement. The distal tendon of the targeted muscle was connected to a high-sensitivity force transducer to measure contractile force with precision. Electrical stimulation was delivered via electrodes positioned on the sciatic nerve to evoke muscle contractions. Vehicle (control study) or 5% w/w of HD was topically applied to the dermal area corresponding to the muscle group under study, ensuring proximity for local diffusion and effect.
A study was performed to evaluate the effects of HD on muscle contractility using a validated in vivo rat model. The experimental setup was meticulously designed to measure the contractile force of the hind limb muscle in response to electrical stimulation of the sciatic nerve, providing a quantitative assessment of muscle relaxation and contraction dynamics in the presence of HD. Anesthetized Sprague-Dawley rats were used for this study, ensuring minimal variability in response to HD application. Hind limbs were shaved and then immobilized at the knee and ankle joints to isolate the effect of the targeted muscle group. The distal tendon of the targeted muscle was connected to a high-sensitivity force transducer for accurate measurement of contractile force. An electrical stimulation was applied via electrodes strategically placed on the sciatic nerve, designed to evoke muscle contractions with controlled frequency to determine amplitude, and duration parameters. A specific concentration of 5% w/w of HD in lubricating lotion, prepared on the same day, was topically applied to the skin overlaying the muscle group under study and the control group received a vehicle (lubricating lotion) treatment under identical conditions.

## CCCCC(O)CO (stereo not shown) [HD, 1,2-hexanediol]
Hairless mice
  recovery of mice from the muscle relaxant effect (safety): all mice recovered
Hairless mice; 30 and 60 minutes post treatment, 20 rpm, vehicle 60 seconds
  time spent on Rota Rod: significant decrease
Hairless mice; by 75 minutes
  recovery from the muscle relaxant effect: recovery trend
Hairless mice; preliminary experiments (data not shown)
  time of most notable muscle relaxant activity post-treatment: 30 min
[1]; 0.01% HD in buffer, 150 Hz
  inhibitory effect on muscle contraction: No significant inhibitory effect; also recorded: minimal effects
[1]; 0.1% HD in buffer, 150 Hz, vs vehicle controls
  reduction in contractile force: ~44%
[1]; 0.5% HD, varied stimulus frequencies, vs vehicle, n=5
  frequency-dependent decrease in torque generation (force-frequency relationship): inhibition is more complete at higher frequencies of stimulation; also recorded: more significant inhibitory effect
Hind limb muscle; 5% w/w HD topical vs vehicle, p<0.05
  duration of muscle contraction: statistically significant reduction
Hind limb muscle; 5% w/w HD topical, compared to vehicle group
  mean percentage decline in force output from initial peak contraction: quantitatively significant
Hind limb muscle; 5% w/w HD topical, electrical stimulation at 150 Hz
  ability to maintain tetanic contraction throughout the stimulus period: unable to maintain tetanic contraction; also recorded: failing to maintain tetanic tension
